According to PubChem BioAssay (NCI):
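Tested at 5 concentrations; 48 h exposure; 96-well plates; endpoints linearly interpolated, else capped at highest concentration. GI50: concentration for 50% inhibition of growth. TGI is the concentration that stops growth completely.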

Legend:
Experiment in all cases: DTP human tumour cell line panel, 48 h
[1] = system: LOX IMVI melanoma
[2] = system: MDA-MB-231 breast
[3] = system: SF-295 CNS
[4] = system: KM12 colon
[5] = system: DU-145 prostate
[6] = system: SK-MEL-2 melanoma
[7] = system: K-562 leukemia
[8] = system: SF-539 CNS
[9] = system: A498 renal
[10] = system: A549 NSCLC

SMILES | TGI [1] | TGI [2] | TGI [3] | TGI [4] | TGI [5] | TGI [6] | TGI [7] | TGI [8] | TGI [9] | TGI [10] | GI50 [1] | GI50 [2] | GI50 [3] | GI50 [4] | GI50 [5] | GI50 [6] | GI50 [7] | GI50 [8] | GI50 [9] | GI50 [10]
COC1(OC)c2no[n+]([O-])c2C(OC)(OC)c2c1no[n+]2[O-] | 33.5 µM | 32.9 µM | 80 µM | 24.2 µM | > 100 µM | 42 µM | > 100 µM | 38 µM | 34.6 µM | 82 µM |  |  |  |  |  |  |  |  |  | 
COc1ccc2nc3n(c2c1)CCc1cc(OC)c(OC)cc1-3 | > 100 µM | > 100 µM | > 100 µM | > 100 µM | > 100 µM | > 100 µM | > 100 µM | > 100 µM | > 100 µM | > 100 µM |  |  |  |  |  |  |  |  |  | 
CCC(CC(C)C)Nc1ccc(NC(CC)CC(C)C)cc1 (stereo not drawn) | 35.1 µM | 33.2 µM | 61.4 µM | 30.2 µM | 82.1 µM | 27.4 µM | 37.8 µM | 33 µM | 95.8 µM | 65.6 µM | 14.9 µM | 16.4 µM | 23 µM | 15.6 µM | 26.5 µM | 12.9 µM | 10.7 µM | 17.1 µM | 23.8 µM | 24.8 µM
NCCC1CN(C(=O)OCc2ccccc2)c2ccccc21 (stereo not drawn) | 17.1 µM | 46.6 µM | 40.3 µM | 48.2 µM | 48.9 µM | 36.3 µM | 26.9 µM | 14.4 µM | > 52.2 µM | > 53.6 µM |  |  |  |  |  |  |  |  |  | 
Cc1ccc(-c2n[nH]c(=O)n2/N=C\c2ccccc2)cc1 | > 100 µM | > 100 µM | 69 µM | > 100 µM | > 100 µM | 99.8 µM | > 100 µM | > 100 µM | > 100 µM | > 100 µM |  |  |  |  |  |  |  |  |  | 
COC(=O)c1c(C)nc(C)c(NO)c1-c1ccccc1C(F)(F)F | > 100 µM | 27.9 µM | > 100 µM | > 100 µM | > 100 µM | > 100 µM | > 100 µM | 38.6 µM | > 100 µM | > 100 µM |  |  |  |  |  |  |  |  |  | 
N/C(=N\Nc1ccc(S(N)(=O)=O)cc1)c1cnccn1 | > 100 µM | > 100 µM | > 100 µM | > 100 µM | > 100 µM | > 100 µM | > 100 µM |  | > 100 µM | > 100 µM |  |  |  |  |  |  |  |  |  | 
CC(C)OC1OC(CO)C(O)CC1n1cc(F)c(=O)[nH]c1=O (stereo not drawn) | > 100 µM | > 100 µM | > 100 µM | > 100 µM | > 100 µM | > 100 µM | 86.4 µM | > 100 µM | > 100 µM | > 100 µM |  |  |  |  |  |  |  |  |  | 
O=C1c2ccccc2-c2[nH]c3cn[nH]c(=O)c3c21 | > 100 µM | > 100 µM | > 100 µM | > 100 µM | > 100 µM | > 100 µM | > 100 µM | > 100 µM | > 100 µM | > 100 µM |  |  |  |  |  |  |  |  |  | 
C/C(=N\Nc1nc2ccccc2[nH]1)c1cc2ccccc2cn1 | 1.48 µM | 1.97 µM |  | 1.88 µM | 1.91 µM |  | > 100 µM | 0.764 µM | 0.665 µM | > 100 µM |  |  |  |  |  |  |  |  |  | 
C(/Cc1ccc2c(c1)OCO2)=N\NC1=NCCCN1 | > 100 µM | > 100 µM | > 100 µM | > 100 µM | > 100 µM | > 100 µM | > 100 µM | > 100 µM | 72.8 µM | > 100 µM |  |  |  |  |  |  |  |  |  | 
COC(=O)c1c(-c2ccc(Cl)cc2)cc2c3ccccc3n(C)c2c1C(=O)OC | > 100 µM | > 100 µM | > 100 µM | > 100 µM | > 100 µM | > 100 µM | > 100 µM | > 100 µM | > 100 µM | > 100 µM |  |  |  |  |  |  |  |  |  | 
Nc1nc(Cl)cc(NCC2(O)CCCC2)n1 | > 100 µM | > 100 µM | > 100 µM | > 100 µM | > 100 µM | > 100 µM | > 100 µM | > 100 µM | > 100 µM | > 100 µM |  |  |  |  |  |  |  |  |  | 
CC(C)(C)OC(=O)n1cc(C2CN(O)C(=O)C23CCC(=O)N3Cc2ccccc2)c2ccccc21 (stereo not drawn) | 55.3 µM | > 100 µM | > 100 µM | > 100 µM | > 100 µM | 35.7 µM | > 100 µM | > 100 µM | 74.8 µM | > 100 µM |  |  |  |  |  |  |  |  |  | 
CO[C@]1(CN2CCN3CCCC[C@@H]3C2)/C=C/C[C@H](C)[C@@H](C)S(=O)(=O)NC(=O)c2ccc3c(c2)N(C[C@@H]2CC[C@H]21)C[C@@]1(CCCc2cc(Cl)ccc21)CO3 |  | 3.27 µM |  | 3.25 µM | 6.54 µM | 0.183 µM | 6.57 µM | 2.72 µM | 6.48 µM | 10.6 µM |  | 1.78 µM |  | 1.73 µM | 2.4 µM | 0.0454 µM | 2.28 µM | 1.39 µM | 2.68 µM | 2.75 µM
COc1ccc(CCN2CCc3c(C)c(C#N)c4nc5ccccc5n4c32)cc1OC | > 100 µM | 86.1 µM | > 100 µM |  | > 100 µM | 44.7 µM | 55.7 µM | > 100 µM | > 100 µM | > 100 µM |  |  |  |  |  |  |  |  |  | 

SMILES | TGI [1] | TGI [2] | TGI [3] | TGI [4] | TGI [5] | TGI [6] | TGI [7] | TGI [8] | TGI [9] | TGI [10] | GI50 [1] | GI50 [2] | GI50 [3] | GI50 [4] | GI50 [5] | GI50 [6] | GI50 [7] | GI50 [8] | GI50 [9] | GI50 [10]
NC(=O)CO/N=C1/C(c2c(O)[nH]c3ccccc23)=Nc2ccccc21 | > 100 µM | > 100 µM | > 100 µM | > 100 µM | > 100 µM | > 100 µM | > 100 µM | > 100 µM | > 100 µM | > 100 µM |  |  |  |  |  |  |  |  |  | 
CCOC(=O)c1cnccc1CC1(C#N)c2ccccc2C=CN1C(=O)c1ccccc1 (stereo not drawn) | 72.9 µM | > 100 µM | > 100 µM | 31.3 µM | > 100 µM | 41.4 µM | 49.6 µM | 75.6 µM | > 100 µM | > 100 µM |  |  |  |  |  |  |  |  |  | 
CCOC(=O)C1CCCCN1CCc1c[nH]c2ccccc12 (stereo not drawn) | > 100 µM | > 100 µM | > 100 µM | > 100 µM | > 100 µM | > 100 µM | > 100 µM | > 100 µM | > 100 µM | > 100 µM |  |  |  |  |  |  |  |  |  | 
N#Cc1nc(C#N)n(C(=O)c2ccccc2)c1NC(=O)c1ccccc1 | > 100 µM | > 100 µM | > 100 µM | > 100 µM | > 100 µM | > 100 µM | > 100 µM | > 100 µM | > 100 µM | > 100 µM |  |  |  |  |  |  |  |  |  | 
NC1=NCC(CN2CCCC2)O1 (stereo not drawn) | > 100 µM | > 100 µM | > 100 µM | > 100 µM | > 100 µM | > 100 µM | > 100 µM | > 100 µM | > 100 µM | > 100 µM |  |  |  |  |  |  |  |  |  | 
Cc1ccc(S(=O)(=O)N(CC(O)COc2ccccc2)c2ccc(F)cc2F)cc1 (stereo not drawn) | 27.3 µM | 39 µM | 34.4 µM | 68.1 µM | 46.9 µM | 30.4 µM | > 100 µM | 30 µM | 28.7 µM | 26.9 µM |  |  |  |  |  |  |  |  |  | 
O=C1CC(n2cccc2)c2c(Br)sc(Br)c21 (stereo not drawn) | 21.7 µM | 30.9 µM | 55.8 µM | 22.8 µM | 31.8 µM | 29.1 µM | 64.8 µM | 35 µM | 56.5 µM | 61.8 µM |  |  |  |  |  |  |  |  |  | 
Cc1cc2c(c(=O)n1C)SCC2 | > 100 µM | > 100 µM | > 100 µM | > 100 µM | > 100 µM | > 100 µM | > 100 µM |  | > 100 µM | > 100 µM |  |  |  |  |  |  |  |  |  | 
COC(=O)[C@@H]1CN(C(=O)c2ccccc2)C(=O)N1C(=O)OCc1ccccc1 | > 100 µM | > 100 µM | > 100 µM | > 100 µM | > 100 µM | > 100 µM | > 100 µM | > 100 µM | > 100 µM | > 100 µM |  |  |  |  |  |  |  |  |  | 
Cc1nc2ccc(Cl)cc2c2c1CCN2c1ccccc1 | 22.3 µM | 13.7 µM | 20.1 µM | 39.1 µM | 63.8 µM |  | 21.8 µM | 28.8 µM | 34.3 µM | 46.6 µM |  |  |  |  |  |  |  |  |  | 
CC(=O)/C(=C\c1ccc(Cl)c(Cl)c1)C(=O)C(C)CN(C)C (stereo not drawn) | 6.14 µM | 27.3 µM | 16.5 µM | 5.35 µM | 17.3 µM |  |  | 13.4 µM | 8.16 µM | 35.7 µM |  |  |  |  |  |  |  |  |  | 
CN(C)C(=S)Oc1ccc2ccc(=O)oc2c1 | > 100 µM | > 100 µM | > 100 µM | > 100 µM | > 100 µM | > 100 µM |  | > 100 µM | > 100 µM | > 100 µM |  |  |  |  |  |  |  |  |  | 
C/C(Nc1ccc(Cl)cc1Cl)=C1/CCOC1=O | > 100 µM | 46.3 µM | 54 µM | > 100 µM | > 100 µM |  | > 100 µM | 89.9 µM | > 100 µM | > 100 µM |  |  |  |  |  |  |  |  |  | 
CS(=O)(=O)NC12CCC(c3ccccc31)c1ccccc12 | > 100 µM | > 100 µM |  | > 100 µM | > 100 µM | > 100 µM | > 100 µM | > 100 µM | > 100 µM | > 100 µM |  |  |  |  |  |  |  |  |  | 
CCOC(=O)C(=O)C(=O)NN(C)C1=NCCN1 | > 100 µM | > 100 µM | > 100 µM | > 100 µM | > 100 µM | > 100 µM | > 100 µM | > 100 µM |  | > 100 µM |  |  |  |  |  |  |  |  |  | 
S=C(NCc1ccccc1)N/N=C/c1ccccn1 | 21.5 µM | > 100 µM |  | > 100 µM | > 100 µM | > 100 µM | > 100 µM | > 100 µM | > 100 µM | > 100 µM |  |  |  |  |  |  |  |  |  | 
